# Experimental data taken from patent US20230021483A1, “[…] […] METHOD AND CLASSIFICATION OF PHARMACEUTICAL COMPONENTS BY USING TRANSCRIPTOMES” (National Institutes of Biomedical Innovation, Health and …, priority 2016, published 2023).
# Tested on: preferentially upregulated genes in LV, SP, LN
# Assay: Z-score-based differential gene expression analysis (adjuvant group- or adjuvant-associated genes, 40 module mapping, TargetMine annotation)
# Format: in vivo, C57BL/6 mice
# Conditions: for Pml 1456103_at (Group G1, Modules 20) / Rnf213 1455500_at (Group G1, Modules 20) / Rsad2 1436058_at (Group G1, Modules 20) / Shisa5 1423986_a_at (Group G1, Modules 20) / Shisa5 1437503_a_at (Group G1, Modules 20) / Stat1 1450033_a_at (Group G1, Modules 20) / Stat1 1450034_at (Group G1, Modules 20) / Tdrd7 1426716_at (Group G1, Modules 20) / Tor1aip2 1418115_s_at (Group G1, Modules 20) / Tor1aip2 1418116_at (Group G1, Modules 20) / Tor1aip2 1435526_at (Group G1, Modules 20) / Trim12a 1437432_a_at (Group G1, Modules 20) / Uba7 1426970_a_at (Group G1, Modules 20) / Adar 1425405_a_at (Group G1, Modules 20) / Adar 1434268_at (Group G1, Modules 20) / Ddx58 1436562_at (Group G1, Modules 20) / Ddx58 1456890_at (Group G1, Modules 20) / Eif2ak2 1422005_at (Group G1, Modules 20) / G3bp2 1421323_a_at (Group G1, Modules 20) / Gm9706///Isg15 1431591_s_at (Group G1, Modules 20) / H2-T10///H2-T22///H2-T9 1449875_s_at (Group G1, Modules 20) / Ifih1 1426276_at (Group G1, Modules 20) / Ifit1 1450783_at (Group G1, Modules 20) / Ifit3 1449025_at (Group G1, Modules 20) / Irf7 1417244_a_at (Group G1, Modules 20) / Irgm1 1418825_at (Group G1, Modules 20) / Mndal 1426906_at (Group G1, Modules 20) / Pml 1448757_at (Group G1, Modules 20): ID, LV
# Method in brief: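 Gene groups for each organ were built from combined z-score cutoffs across adjuvants, ranging from z>1 to z>3. Scores came from fold changes standardized per gene over the whole organ data set, with the three replicate z-scores added per adjuvant; sums above 3 marked preferential expression.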
smiles,measurement,setting,value
"Nc1nc2c(ncn2[C@@H]2O[C@@H]3COP(=O)(O)O[C@H]4[C@@H](O)[C@H](n5cnc6c(N)ncnc65)O[C@@H]4COP(=O)(O)O[C@@H]2[C@@H]3O)c(=O)[nH]1 [cGAMP, Cyclic [G(2′,5′)pA(3′,5′)p]]","Pml 1456103_at (Group G1, Modules 20)",sample x1,1.62
same,"Rnf213 1455500_at (Group G1, Modules 20)",sample x1,2.58
same,"Rsad2 1436058_at (Group G1, Modules 20)",sample x1,2.08
same,"Shisa5 1423986_a_at (Group G1, Modules 20)",sample x1,1.7
same,"Shisa5 1437503_a_at (Group G1, Modules 20)",sample x1,1.57
same,"Stat1 1450033_a_at (Group G1, Modules 20)",sample x1,3.11
same,"Stat1 1450034_at (Group G1, Modules 20)",sample x1,2.46
same,"Tdrd7 1426716_at (Group G1, Modules 20)",sample x1,2.18
same,"Tor1aip2 1418115_s_at (Group G1, Modules 20)",sample x1,2.9
same,"Tor1aip2 1418116_at (Group G1, Modules 20)",sample x1,2.41
same,"Tor1aip2 1435526_at (Group G1, Modules 20)",sample x1,2.32
same,"Trim12a 1437432_a_at (Group G1, Modules 20)",sample x1,2.07
same,"Uba7 1426970_a_at (Group G1, Modules 20)",sample x1,2.06
same,"Adar 1425405_a_at (Group G1, Modules 20)",sample x2,2.38
same,"Adar 1434268_at (Group G1, Modules 20)",sample x2,1.71
same,"Ddx58 1436562_at (Group G1, Modules 20)",sample x2,2.13
same,"Ddx58 1456890_at (Group G1, Modules 20)",sample x2,2.28
same,"Eif2ak2 1422005_at (Group G1, Modules 20)",sample x2,2.21
same,"G3bp2 1421323_a_at (Group G1, Modules 20)",sample x2,2.6
same,"Gm9706///Isg15 1431591_s_at (Group G1, Modules 20)",sample x2,1.62
same,"H2-T10///H2-T22///H2-T9 1449875_s_at (Group G1, Modules 20)",sample x2,1.8
same,"Ifih1 1426276_at (Group G1, Modules 20)",sample x2,1.62
same,"Ifit1 1450783_at (Group G1, Modules 20)",sample x2,2.63
same,"Ifit3 1449025_at (Group G1, Modules 20)",sample x2,1.95
same,"Irf7 1417244_a_at (Group G1, Modules 20)",sample x2,1.62
same,"Irgm1 1418825_at (Group G1, Modules 20)",sample x2,2.09
same,"Mndal 1426906_at (Group G1, Modules 20)",sample x2,2.11
same,"Pml 1448757_at (Group G1, Modules 20)",sample x2,2.02
same,"Pml 1456103_at (Group G1, Modules 20)",sample x2,1.48
same,"Rnf213 1455500_at (Group G1, Modules 20)",sample x2,2.34
same,"Rsad2 1436058_at (Group G1, Modules 20)",sample x2,1.89
same,"Shisa5 1423986_a_at (Group G1, Modules 20)",sample x2,1.43
same,"Shisa5 1437503_a_at (Group G1, Modules 20)",sample x2,1.63
same,"Stat1 1450033_a_at (Group G1, Modules 20)",sample x2,2.52
same,"Stat1 1450034_at (Group G1, Modules 20)",sample x2,1.97
same,"Tdrd7 1426716_at (Group G1, Modules 20)",sample x2,2.34
same,"Tor1aip2 1418115_s_at (Group G1, Modules 20)",sample x2,2.68
same,"Tor1aip2 1418116_at (Group G1, Modules 20)",sample x2,2.58
same,"Tor1aip2 1435526_at (Group G1, Modules 20)",sample x2,2.28
same,"Trim12a 1437432_a_at (Group G1, Modules 20)",sample x2,1.46
same,"Uba7 1426970_a_at (Group G1, Modules 20)",sample x2,1.28
same,"Adar 1425405_a_at (Group G1, Modules 20)",sample x3,2.37
same,"Adar 1434268_at (Group G1, Modules 20)",sample x3,1.8
same,"Ddx58 1436562_at (Group G1, Modules 20)",sample x3,2.6
same,"Ddx58 1456890_at (Group G1, Modules 20)",sample x3,2.38
same,"Eif2ak2 1422005_at (Group G1, Modules 20)",sample x3,2.73
same,"G3bp2 1421323_a_at (Group G1, Modules 20)",sample x3,2.43
same,"Gm9706///Isg15 1431591_s_at (Group G1, Modules 20)",sample x3,1.73
same,"H2-T10///H2-T22///H2-T9 1449875_s_at (Group G1, Modules 20)",sample x3,2.45
same,"Ifih1 1426276_at (Group G1, Modules 20)",sample x3,1.66
same,"Ifit1 1450783_at (Group G1, Modules 20)",sample x3,2.63
same,"Ifit3 1449025_at (Group G1, Modules 20)",sample x3,2.06
same,"Irf7 1417244_a_at (Group G1, Modules 20)",sample x3,1.62
same,"Irgm1 1418825_at (Group G1, Modules 20)",sample x3,2.14
same,"Mndal 1426906_at (Group G1, Modules 20)",sample x3,2.19
same,"Pml 1448757_at (Group G1, Modules 20)",sample x3,2.49
same,"Pml 1456103_at (Group G1, Modules 20)",sample x3,1.62
same,"Rnf213 1455500_at (Group G1, Modules 20)",sample x3,2.18
same,"Rsad2 1436058_at (Group G1, Modules 20)",sample x3,1.75
same,"Shisa5 1423986_a_at (Group G1, Modules 20)",sample x3,2.36
same,"Shisa5 1437503_a_at (Group G1, Modules 20)",sample x3,2.09
same,"Stat1 1450033_a_at (Group G1, Modules 20)",sample x3,2.85
same,"Stat1 1450034_at (Group G1, Modules 20)",sample x3,2.26
same,"Tdrd7 1426716_at (Group G1, Modules 20)",sample x3,2.5
same,"Tor1aip2 1418115_s_at (Group G1, Modules 20)",sample x3,2.71
same,"Tor1aip2 1418116_at (Group G1, Modules 20)",sample x3,2.68
same,"Tor1aip2 1435526_at (Group G1, Modules 20)",sample x3,2.32
same,"Trim12a 1437432_a_at (Group G1, Modules 20)",sample x3,1.61
same,"Uba7 1426970_a_at (Group G1, Modules 20)",sample x3,1.91
same,adjuvant group-associated biological features,"z-score selected genes, TargetMine and IPA upstream cytokine analyses",strongly associated with type I and type II interferon responses
